In this data set the target is T1, recombinant human Cathepsin B (Homo sapiens, UniProt P07858).
T1 construct: purchased R&D Systems (Bio-Techne AG) 953-CY-010
Briefly: Recombinant human Cathepsin B-induced cleavage (in vitro enzymatic cleavage assay, UHPLC-MS/MS). The data set is classed as biochemical. To be noted: for half-life at 10 μM: human, Cathepsin B 2 μg/mL, 25 mM MES buffer pH 5.0, 37° C., read-out: T1/2 Compound; for Ratio (T1/2 Compound/T1/2 Reference): reference Cys-MC-Val-Cit-PABC-MMAF; for cleavage rate compared to reference PABC compound (times faster): versus Cys-MC-Val-Cit-PABC-MMAF. How it is done:
Cat B-induced cleavage of the compounds of the present invention was evaluated according to the in vitro enzymatic cleavage assay using recombinant human Cathepsin B and UHPLC-MS/MS analysis as described below.
Reference compounds Cys-MC-Val-Cit-PABC-MMAF and MMAF were used as positive controls.
The in vitro enzymatic assay was conducted at 37° C. with the test compounds at a concentration of 10 μM (2.5 μM when the test compound is an antibody-drug conjugate) in the presence of activated recombinant human Cathepsin B enzyme at 2 μg/mL in a 25 mM MES buffer pH 5.0. The enzymatic cleavage reaction was stopped for each defined time point by mixing an equal volume of acetonitrile+0.1% FA containing an internal standard (warfarine at 8 μM).
Analysis was conducted using a Waters Acquity UPLC System coupled to a Waters Xevo TQ triple quad mass spectrometer. UHPLC was conducted depending on the test compounds with a BEH C8 1.7 μm 100×2.1 mm or BEH C18 1.7 μm 50×2.1 mm or HSS T3 1.7 μm 50×2.1 mm columns heated at 45° C. or 50° C. and fitted with 2 μm insert filter pre-columns (available from Waters), and solvent systems A1 (H2O+0.1% FA) and B1 (acetonitrile+0.1% FA) at a flow rate of 0.6 mL/min and a 10-95% gradient of B1 over 1.9 min.
MS/MS was performed using electrospray ionization (ESI) interface in positive mode and specific MRM transitions for each tested compound.

Where two headings read alike, the source gives them in different places. Non-standard residues stand in square brackets, D forms with d. Residues, ends and D or L forms follow the SMILES beside them. Groups on a side chain read outwards from the residue. *: point of attachment. DM1Mal(CH2)2CO = COc1cc2cc(c1Cl)N(C)C(=O)C[C@H](OC(=O)[C@H](C)N(C)C(=O)CCSC1CC(=O)N(CCC(=O)*)C1=O)[C@]1(C)O[C@H]1[C@H](C)[C@@H]1C[C@@](O)(NC(=O)O1)[C@H](OC)/C=C/C=C(\C)C2; Camptothecin(20S-OCO) = CC[C@@]1(OC(=O)*)C(=O)OCc2c1cc1n(c2=O)Cc2cc3ccccc3nc2-1; X2 = CC(=O)N[C@@H](CSC1CC(=O)N(CCC(=O)*)C1=O)C(=O)O; Dolaproine = CO[C@@H]([C@@H]1CCCN1)[C@@H](C)C(=O)O; Dil = CC[C@H](C)[C@H](NC)[C@@H](CC(=O)O)OC; NMe2Val = CC(C)[C@@H](C(=O)*)N(C)C; PEG5 = NCCOCCOCCOCCOCCOCCC(=O)O; PEG4 = NCCOCCOCCOCCOCCC(=O)O; Dab = NCC[C@H](N)C(=O)O

As for `COc1cc2cc(c1Cl)N(C)C(=O)C[C@H](OC(=O)[C@H](C)N(C)C(=O)CCSC1CC(=O)N(CCC(=O)NCCCC[C@H](NC(=O)[C@H](CCCCN)NC(=O)[C@H](Cc3ccccc3)NC(=O)[C@H](Cc3ccccc3)NC(=O)[C@H](CCCCNC(=O)CCN3C(=O)CC(SCCC(=O)N(C)[C@@H](C)C(=O)O[C@H]4CC(=O)N(C)c5cc(cc(OC)c5Cl)C/C(C)=C/C=C/[C@@H](OC)[C@@]5(O)C[C@H](OC(=O)N5)[C@@H](C)[C@@H]5O[C@@]45C)C3=O)NC(=O)[C@H](CCCCN)NC(=O)[C@H](Cc3ccccc3)NC(=O)CCOCCOCCOCCOCCNC(=O)CCN3C(=O)CC(SC[C@H](NC(C)=O)C(=O)O)C3=O)C(=O)N[C@@H](Cc3ccccc3)C(=O)O)C1=O)[C@]1(C)O[C@H]1[C@H](C)[C@@H]1C[C@@](O)(NC(=O)O1)[C@H](OC)/C=C/C=C(\C)C2` (stereo partly drawn) [Compound 29, Ac-Cys-Mal-PEG4-[Phe-Lys-Lys(Mal-DM1)-Phe]2-OH] ({X2-PEG4}-FKK(DM1Mal(CH2)2CO)FFKK(DM1Mal(CH2)2CO)F-OH), the “Ratio (T1/2 Compound/T1/2 Reference)” value is reported as 0.23 and the “cleavage rate compared to reference PABC compound (times faster)” value was ~5 fold. The half-life at 10 μM (10 μM test compound) came out at 2.4 min.

For “Arg-PEG4-Phe-Arg-Glu(Sar-OCPT)-Arg-Phe-Arg-OH [Compound 16]”, the “Cat B-induced cleavage, in words” value is recorded as “rapidly cleaved”.

For “Arg-PEG4-[Phe-Arg-Glu(Sar-OCPT)-Arg]2-OH [Compound 18]”, the “Cat B-induced cleavage, in words” value is “rapidly released”.

Regarding “Arg-PEG4-Phe-Arg-[Glu(Sar-OCPT)-Phe]2-OH [Compound 17]”, the “Cat B-induced cleavage, in words” value is reported as “rapidly released”.

On to `CC[C@H](C)[C@@H]([C@@H](CC(=O)N1CCC[C@H]1[C@H](OC)[C@@H](C)C(=O)N[C@@H](Cc1ccccc1)C(=O)N[C@@H](CCCNC(=N)N)C(=O)N[C@@H](Cc1ccccc1)C(=O)N[C@@H](CCCCNC(=O)CCOCCOCCOCCOCCNC(=O)CCN1C(=O)CC(SC[C@H](NC(C)=O)C(=O)O)C1=O)C(=O)O)OC)N(C)C(=O)[C@@H](NC(=O)[C@H](C(C)C)N(C)C)C(C)C` (stereo partly drawn) [Compound 3, AF-Arg-Phe-Lys(PEG4-Mal-Cys-Ac)-OH] (NMe2Val-V[Dil][Dolaproine]FRFK([PEG4-X2])-OH), for which the “Ratio (T1/2 Compound/T1/2 Reference)” value was found to be 0.11. Under “pH 5, 10 μM test compound”, the half-life at 10 μM worked out at 1.4 min.

`CC[C@@]1(OC(=O)NCC[C@H](NC(=O)[C@H](CCCNC(=N)N)NC(=O)[C@H](Cc2ccccc2)NC(=O)CCOCCOCCOCCOCCOCCNC(=O)[C@@H](N)CCCNC(=N)N)C(=O)N[C@@H](Cc2ccccc2)C(=O)O)C(=O)OCc2c1cc1n(c2=O)Cc2cc3ccccc3nc2-1` [Compound 10, Arg-PEG4-Phe-Arg-Dab(CO-CPT)-Phe-OH] (H-R[PEG5]FR[Dab](Camptothecin(20S-OCO))F-OH; N-terminus assumed): the “Ratio (T1/2 Compound/T1/2 Reference)” value is given as 0.1. Besides, the half-life at 10 μM (pH 5, 10 μM test compound) was found to be 0.9 min.

As for `CC[C@H](C)[C@@H]([C@@H](CC(=O)N1CCC[C@H]1[C@H](OC)[C@@H](C)C(=O)N[C@@H](Cc1ccccc1)C(=O)NCCCC[C@H](NC(=O)[C@H](CCCNC(=N)N)NC(=O)[C@H](CCCCNC(=O)CCN1C(=O)CC(SCCC(=O)N(C)[C@@H](C)C(=O)O[C@H]2CC(=O)N(C)c3cc(cc(OC)c3Cl)C/C(C)=C/C=C/[C@@H](OC)[C@@]3(O)C[C@H](OC(=O)N3)[C@@H](C)[C@@H]3O[C@@]23C)C1=O)NC(=O)[C@H](CCCNC(=N)N)NC(=O)[C@H](Cc1ccccc1)NC(=O)CCOCCOCCOCCOCCNC(=O)CCN1C(=O)CC(SC[C@H](NC(C)=O)C(=O)O)C1=O)C(=O)N[C@@H](Cc1ccccc1)C(=O)O)OC)N(C)C(=O)[C@@H](NC(=O)[C@H](C(C)C)N(C)C)C(C)C` (stereo partly drawn) [Compound 30, Ac-Cys-Mal-PEG4-Phe-Arg-Lys(Mal-DM1)-Arg-Lys(AF)-Phe-OH] ({X2-PEG4}-FRK(DM1Mal(CH2)2CO)RK([Phe-Dolaproine-Dil-Val-NMe2Val])F-OH), the “Ratio (T1/2 Compound/T1/2 Reference)” value is 0.07 and the “cleavage rate compared to reference PABC compound (times faster)” value was “more than 10 fold”. Further, under “10 μM test compound”, the half-life at 10 μM came out at 1.1 min.

Values taken from patent US20220062371A1, “LIGAND-DRUG-CONJUGATES AS SUBSTRATES FOR SELECTIVE CLEAVAGE BY THE EXOPEPTIDASE ACTIVITY OF CATHEPSIN B” (DEBIOPHARM RESEARCH & MANUFACTURING S.A., priority 2017, published 2022).
